Assay results: patent US20080221093A1, “Metalloprotease inhibitors containing a heterocyclic moiety” (priority 2007, published 2008)

Target: T1, catalytic domain of MMP-13 enzyme (Homo sapiens, UniProt P45452)
T1 construct: stock solution of catalytic domain of MMP-13 enzyme; purchased Invitek (Berlin) 30100812
Experiment: Assay for determining MMP-13 inhibition (fluorescent substrate)
Assay type: biochemical
Conditions: compounds named as lower than 100 nM
Description: Assay for Determining MMP-13 Inhibition
The typical assay for MMP-13 activity is carried out in assay buffer comprised of 50 mM Tris, pH 7.5, 150 mM NaCl, 5 mM CaCl2 and 0.05% Brij-35. Different concentrations of tested compounds are prepared in assay buffer in 50 μL aliquots. 10 μL of a 50 nM stock solution of catalytic domain of MMP-13 enzyme (produced by Alantos or commercially available from Invitek (Berlin), Cat.# 30100812) is added to the compound solution. The mixture of enzyme and compound in assay buffer is thoroughly mixed and incubated for 10 min at room temperature. Upon the completion of incubation, the assay is started by addition of 40 μL of a 12.5 μM stock solution of MMP-13 fluorescent substrate (Calbiochem, Cat. No. 444235). The time-dependent increase in fluorescence is measured at the 320 nm excitation and 390 nm emission by automatic plate multireader. The IC50 values are calculated from the initial reaction rates.

Row | SMILES | IC50
1 | O=C1COc2ccc(CNC(=O)c3cnc4ccccc4n3)cc2N1 [3/137] | < 100 nM
2 | O=C1COc2ccc(CNC(=O)C3NC(=O)c4ccccc4N3)cc2N1 (centres unmarked) [Example 1/4] | < 100 nM
